Assay results taken from US20020010132A1, “COMPOSITIONS OF MURAMYL PEPTIDES INHIBITING THE REPLICATION OF HIV” (VACSYN S.A., priority 1994, published 2002).

Key:
[1] = system: macrophages in culture; test: Proliferation of cultured macrophages (3H-thymidine incorporation); type: cell-based, human; conditions: for inhibition of proliferation of macrophages stimulated with the combination IL-3/GM-CSF / inhibition of proliferation of macrophages stimulated with IL-3: 1 μg/ml; for inhibition of proliferation of macrophages stimulated with the combination IL-3/GM-CSF: hr IL-3 and hr GM-CSF stimulated; for inhibition of proliferation of macrophages stimulated with IL-3: hr IL-3 stimulated, compound added a day before 3H-thymidine; for inhibition of spontaneous proliferation: without stimulation
Procedure: For that, monocytes collected from a donor are cultured for 5 days either a) without stimulation (so as to evaluate their spontaneous proliferation level) or b) in the presence of human recombinant interleukin-3 (hr IL-3) or c) in the presence of both hr IL-3 and hr GM-CSF human recombinant granulocyte-macrophage colony stimulating factor. These two treatments make it possible to obtain a high level of proliferation. The compounds of the invention are added to the culture medium a day before the addition of tritiated thymidine (^3H-thymidine). The dividing cells incorporate this thymidine. The cells (which have differentiated into macrophages during the duration of the culture) are recovered and washed, and the proliferation level is evaluated by measuring, in a beta counter, the quantity of ^3H incorporated according to conventional methods as described in Blood, Vol. 76, pages 1490-1493, 1990.

[2] = system: HIV (HTLV III Ba-L); test: HIV replication in primary cultures of human monocytes (viral protein P24 in supernatants, day 7); type: cell-based
Procedure: Some cultures were treated with different concentrations of the compounds either 1 day before, or the same day, or 1 day after inoculation with HIV. The replication of the virus was evaluated on day 7 by measurement of the quantity of viral protein P24 in the supernatants as described in Blood, Vol. 76, page 1490-1493, 1990.

[3] = Clinical trials: tolerance in healthy volunteers and cancer subjects; type: in vivo, man
[4] = system: guinea pig macrophages; conditions: cited from earlier work
[5] = system: HIV; conditions: in vitro, 1000 μg/ml; cited from earlier work
[6] = system: HIV; conditions: cited from earlier work

Molecule: COC(=O)[C@@H](CCC(N)=O)NC(=O)[C@H](C)NC(=O)[C@@H](C)O[C@H]1[C@H](O)[C@@H](CO)OC(O)[C@@H]1NC(C)=O (stereo partly drawn) [Murametide, Nac-Mur-L-Ala-DGln OMe]
- inhibition of proliferation of macrophages stimulated with the combination IL-3/GM-CSF [1]: inhibiting the proliferation
- inhibition of proliferation of macrophages stimulated with IL-3 [1]: inhibiting the proliferation
- inhibition of spontaneous proliferation ([1]; 10 μg/ml): inhibition of spontaneous proliferation was observed
- inhibition of spontaneous proliferation ([1]; 50 μg/ml): inhibition of spontaneous proliferation was observed
- suppression of viral replication ([2]; 50 μg/ml, regardless of the time of treatment): 100%
- suppression of viral replication ([2]; different concentrations, treatment 1 day before, same day or 1 day after inoculation): highly significant suppression of viral replication
- side effects in man [3]: free of side effects
- tolerance in man [3]: very good tolerance

Molecule: N-acetyl-muramyl-L-alanyl-D-Isoglutamine [MDP]
- inhibition of the proliferation of guinea pig macrophages [4]: capable of inhibiting the proliferation
- inhibition of the replication of HIV [5]: partially inhibiting the replication of HIV

Molecule: CCCCCCCCCCCCCCCC(=O)OC[C@H](COP(=O)(O)OCCNC(=O)[C@H](C)NC(=O)CC[C@@H](NC(=O)[C@H](C)NC(=O)[C@@H](C)O[C@@H]([C@H](O)[C@H](O)CO)[C@H](C=O)NC(C)=O)C(N)=O)OC(=O)CCCCCCCCCCCCCCC [MTP-PE]
- activity on viral replication ([6]; compound added a day before or 4 days after): minimal
- total suppression of viral replication ([6]; free form or incorporated into liposomes): not capable
- reduction in viral replication ([6]; free form, added repeatedly before and after HIV infection): only a partial reduction in viral replication

Molecule: CCCCOC(=O)[C@@H](CCC(N)=O)NC(=O)[C@H](C)NC(=O)[C@@H](C)O[C@H]1[C@H](O)[C@@H](CO)OC(O)[C@@H]1NC(C)=O (stereo partly drawn) [Murabutide, Nac-Mur-L-Ala-DGln OnC4H9]
- inhibition of proliferation of macrophages stimulated with the combination IL-3/GM-CSF [1]: inhibiting the proliferation
- inhibition of proliferation of macrophages stimulated with IL-3 [1]: inhibiting the proliferation
- inhibition of spontaneous proliferation ([1]; 10 μg/ml): inhibition of spontaneous proliferation was observed
- inhibition of viral replication ([2]; 10 to 50 μg/ml, treatment on day -1, day 0 or day +1 relative to infection, P24 on day 7): completely inhibits viral replication
- side effects in man [3]: free of side effects
- tolerance in man [3]: very good tolerance
